Reference: patent publication US7241613B1, “Identification of Candida cell surface proteins and their uses” (priority 2002, dated 2007)
In brackets after ≈: the same amount, converted by molar mass. Read-outs that look alike come from different tables or passages of the source. Starred links: 1 amine or outer side, 2 acyl side, 3 side chain; linkers in the order of their positions; H or OH if unused. Positions of bridges follow the written chain, without caps; N, C: chain ends. Non-standard residues stand in square brackets, D forms with d. Residues, ends and D or L forms follow the SMILES beside them. *: point of attachment. hTyr(3S-OH,4S-OH,3'-OSO3H) = N[C@H](C(=O)O)[C@H](O)[C@@H](O)c1ccc(O)c(OS(=O)(=O)O)c1; Orn(4R-OH,5R-OH) = O=C([C@H](C[C@@H](O)[C@@H](O)N[*:3])N[*:1])[*:2]; Pro(3S-OH,4S-Me) = C[C@H]1CN[C@H](C(=O)O)[C@H]1O; X1 = CCCCCOc1ccc(-c2cc(-c3ccc(C(=O)*)cc3)no2)cc1; Gln(3R-OH) = NC(=O)C[C@@H](O)[C@H](N)C(=O)O; Hyp = O=C(O)[C@@H]1C[C@@H](O)CN1

Columns and labels:
[1] = system: C. albicans null mutants; assay: Sensitivities to calcofluor white, SDS or NaCl (spotting cells on YPD plates); format: cell-based, Candida albicans; conditions: for Calcofluor white (CW) sensitivity: 3-25 μg/ml CW; for Calcofluor white (CW) sensitivity / NaCl sensitivity: YPD plates, 37° C.; for NaCl sensitivity: 1-3 M NaCl
Procedure: To investigate the effect of gene disruption on cell wall integrity and remodeling, we tested the sensitivity of all csf null mutants to calcofluor white (CW; Fluorescent Brightener 28-Sigma), SDS or NaCl by spotting cells on plates. Exponential cultures were harvested and adjusted to an OD600 of 0.24. 2.5 μl of samples plus three to four tenfold serial dilutions were deposited on the surface of YPD plates containing increasing concentrations of the compound: 3-25 μg/ml CW, 1-3 M NaCl, 0.01-0.5% SDS. […]
We further characterized the mutants by determining their susceptibility to calcofluor white, SDS and NaCl. The first column contains the name of the strains.
To go further in the analysis, we decided to test cells for their ability to respond to hyperosmotic stresses that require cell wall remodeling and integrity.

[2] = system: Sap2p, Sap1p, Sap1p and Sap1p; conditions: in micromolar concentrations; cited from earlier work
[3] = system: C. albicans csf null mutants, clinical isolate and parental strain; assay: Antifungal susceptibility assay (MIC, NCCLS M27A); format: cell-based, Candida albicans; conditions: all isolates, RPMI 1640, 35° C., 48 hours
Procedure: Assays were performed at the Center for Medical Mycology, University Hospitals of Cleveland to investigate whether the csf null mutants show a higher susceptibility to antifungals when compared to wild-type. The minimum inhibitory concentrations (MIC) of three antifungal agents, amphotericin B, fluconazole and micafungin, against each fungal isolate were determined according to the NCCLS M27A standard for susceptibility testing of yeasts. […] The MIC endpoint was defined as the lowest concentration that inhibits 80% of fungal growth as compared to the growth control, for fluconazole and micafungin, and 100% inhibition for amphotericin B.
In order to investigate more extensively the effects induced by the loss of the targeted genes on the cell wall (e.g. cell wall permeability), we tested whether the mutant strains were more susceptible to antifungal drugs. Three different antifungal agents were tested at Cleaveland: one polyene (Amphotericin B; a compound that binds to ergosterols and increases membrane permeability), one azole (Fluconazole; a compound that interferes with the ergosterol biosynthesis pathway) and one echinochandin (Micafungin; a compound that inhibits the β-glucan synthetase). No differences in MIC were detected. The MIC of amphotericin B against all isolates, including the clinical isolate and parental strain, was 0.5-1 μg/ml.

[4] = molecular target: hsp90 (Candida albicans, UniProt P46598); conditions: first stage of double-blind Phase II trial, systemic candidiasis; cited from earlier work
[5] = 6.1231 null mutant vs wild type
[6] = 6.1639 null mutant vs wild type
[7] = 6.3873 null mutant vs wild type
[8] = Candida albicans, endpoint 80% inhibition of fungal growth, read-out: MIC

hsp90, sequence (P46598 whole entry): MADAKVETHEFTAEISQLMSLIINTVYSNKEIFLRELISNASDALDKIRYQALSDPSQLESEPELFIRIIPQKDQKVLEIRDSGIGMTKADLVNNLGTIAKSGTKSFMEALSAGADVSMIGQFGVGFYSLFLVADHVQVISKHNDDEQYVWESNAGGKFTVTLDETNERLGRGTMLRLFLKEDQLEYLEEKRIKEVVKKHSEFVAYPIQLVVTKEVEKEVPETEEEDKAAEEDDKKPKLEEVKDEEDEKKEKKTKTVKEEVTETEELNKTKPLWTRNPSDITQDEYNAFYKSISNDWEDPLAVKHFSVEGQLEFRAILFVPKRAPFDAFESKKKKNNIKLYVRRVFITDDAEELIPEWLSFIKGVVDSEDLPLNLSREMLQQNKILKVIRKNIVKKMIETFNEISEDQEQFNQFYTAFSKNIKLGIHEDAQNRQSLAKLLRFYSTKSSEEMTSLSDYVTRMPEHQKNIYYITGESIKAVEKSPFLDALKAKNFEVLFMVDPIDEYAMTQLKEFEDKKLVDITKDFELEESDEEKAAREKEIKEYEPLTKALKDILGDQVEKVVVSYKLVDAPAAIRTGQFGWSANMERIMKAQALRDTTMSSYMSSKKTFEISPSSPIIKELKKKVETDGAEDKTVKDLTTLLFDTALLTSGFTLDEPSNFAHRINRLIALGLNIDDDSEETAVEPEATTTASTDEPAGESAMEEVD

O=S(=O)(O)c1cc(Nc2nc(Nc3ccccc3)nc(N(CCO)CCO)n2)ccc1/C=C/c1ccc(Nc2nc(Nc3ccccc3)nc(N(CCO)CCO)n2)cc1S(=O)(=O)O [Calcofluor white, calcofluor white]
Calcofluor white (CW) sensitivity [1, 5]: +++
growth in the presence of calcofluor ([1]; 6.1231Δ, 25 μg/ml calcofluor): no more cells were growing
Calcofluor white (CW) sensitivity [1, 6]: +
Calcofluor white (CW) sensitivity [1, 7]: ++
Calcofluor white (CW) sensitivity ([1]; als1 null mutant vs wild type): +
Calcofluor white (CW) sensitivity ([1]; hwp1 null mutant vs wild type): +
Calcofluor white (CW) sensitivity ([1]; mp65 null mutant vs wild type): +++
sensitivity to calcofluor white ([1]; mp65Δ): highly sensitive
Calcofluor white (CW) sensitivity ([1]; pra1 null mutant vs wild type): ++
Calcofluor white (CW) sensitivity ([1]; sap9 null mutant vs wild type): +

CC(C)c1nc(CN(C)C(=O)N[C@H](C(=O)N[C@@H](Cc2ccccc2)C[C@H](O)[C@H](Cc2ccccc2)NC(=O)OCc2cncs2)C(C)C)cs1 [ritonavir]
inhibition of the activity of Sap2p, Sap1p, Sap1p and Sap1p [2]: inhibit the activity

CC(C)(C)NC(=O)[C@@H]1C[C@@H]2CCCC[C@@H]2CN1C[C@@H](O)[C@H](Cc1ccccc1)NC(=O)[C@H](CC(N)=O)NC(=O)c1ccc2ccccc2n1 [saquinavir]
inhibition of the activity of Sap2p, Sap1p, Sap1p and Sap1p [2]: inhibit the activity

OC(Cn1cncn1)(Cn1cncn1)c1ccc(F)cc1F [fluconazole]
MIC [3, 8]: 0.25 µg/mL (≈ 0.816 µM)

CCCCCCCCCCCCOS(=O)(=O)[O-].[Na+] [SDS, sodium dodecyl sulfate]
sensitivity to SDS ([1]; mp65Δ, 6.1639Δ and sap9Δ, increasing concentrations of SDS (0-0.5%), 24 h at 37° C.): hypersensitive

C[C@@H]1[C@H](O)[C@@H](C)/C=C/C=C/C=C/C=C/C=C/C=C/C=C/[C@H](O[C@@H]2O[C@H](C)[C@@H](O)[C@H](N)[C@@H]2O)C[C@@H]2O[C@](O)(C[C@@H](O)C[C@@H](O)[C@H](O)CC[C@@H](O)C[C@@H](O)CC(=O)O[C@H]1C)C[C@H](O)[C@H]2C(=O)O [amphotericin B]
MIC ([3]; including the clinical isolate and parental strain, endpoint 100% inhibition): 0.5 to 1 µg/mL

[Cl-].[Na+] [NaCl]
NaCl sensitivity [1, 5]: +
NaCl sensitivity [1, 6]: +
NaCl sensitivity [1, 7]: +
sensitivity to NaCl (hyperosmotic stress) ([1]; all six csf mutants, increasing NaCl concentration (0-3M), 24 h at 37° C.): as sensitive as the parental strain
NaCl sensitivity ([1]; als1 null mutant vs wild type): +
NaCl sensitivity ([1]; hwp1 null mutant vs wild type): +
NaCl sensitivity ([1]; mp65 null mutant vs wild type): +
NaCl sensitivity ([1]; pra1 null mutant vs wild type): +
NaCl sensitivity ([1]; sap9 null mutant vs wild type): +

CCCCCOc1ccc(-c2cc(-c3ccc(C(=O)N[C@H]4C[C@@H](O)[C@@H](O)NC(=O)[C@@H]5[C@@H](O)[C@@H](C)CN5C(=O)[C@H]([C@H](O)CC(N)=O)NC(=O)[C@H]([C@H](O)[C@@H](O)c5ccc(O)c(OS(=O)(=O)O)c5)NC(=O)[C@@H]5C[C@@H](O)CN5C(=O)[C@H]([C@@H](C)O)NC4=O)cc3)no2)cc1 [micafungin] (X1-[Orn(4R-OH,5R-OH)]T[Hyp][hTyr(3S-OH,4S-OH,3'-OSO3H)][Gln(3R-OH)][Pro(3S-OH,4S-Me)]; lactam 1-C)
MIC [3, 8]: 0.008 µg/mL (≈ 0.0063 µM)

B1: Mycograb: monoclonal antibodies directed against hsp90 in clinical trials for systemic candidiasis (antibody, chains of the INN, looked up, V domains shown)
VH: EVQLVESGAEVKKPGESLRISCKGSGCIISSYWISWVRQMPGKGLEWMGKIDPGDSYINYSPSFQGHVTISADKSINTAYLQWNSLKASDTAMYYCARGGRDFGDSFDYWGQGTLVTVSS
VL: DVVMTQSPSFLSAFVGDRITITCRASSGISRYLAWYQQAPGKAPKLLIYAASTLQTGVPSRFSGSGSGTEFTLTINSLQPEDFATYYCQHLNSYPLTFGGGTKVDIK
modifications: scFv
notes: monoclonal antibodies directed against hsp90 in clinical trials for systemic candidiasis
serious adverse events [4]: No serious adverse events
